Source: patent US9005673B2, “Preservative and additive for food and feed” (priority 2005, dated 2015)

Assay: Contact of acid solutions with human skin
Conditions: solution with a pH of less than 0.5

Structure (SMILES): O=S(=O)(O)O [sulfuric acid]
- irritation of a hand put into the solution: an irritation would occur
